Experimental data: patent US5750550A, “2-(pyrazol-5-yl-oxymethyl)-1,2-benzisothiazol-3 (2H)-One 1, 1-dioxides and compositions and method of use thereof” (Sanofi, priority 1995, dated 1998)

Target: T1, human leukocyte elastase (Homo sapiens, UniProt P08246)
T1 sequence (P08246 30-267): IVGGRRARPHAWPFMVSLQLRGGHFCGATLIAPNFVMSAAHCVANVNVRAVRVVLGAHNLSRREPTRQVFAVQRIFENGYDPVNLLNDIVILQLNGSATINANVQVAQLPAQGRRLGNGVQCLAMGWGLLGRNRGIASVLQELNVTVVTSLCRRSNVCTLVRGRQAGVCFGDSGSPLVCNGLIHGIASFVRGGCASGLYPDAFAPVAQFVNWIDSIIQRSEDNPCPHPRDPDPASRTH
Test: human leukocyte elastase (HLE) inhibitory activity, substrate MeOSuc-Ala-Ala-Pro-Val-pNA
Type: biochemical
Details: pH 7.8, 25° C., steady-state velocities
Method: The test compound (inhibitor) is dissolved in DMSO in a vial to produce an inhibitor stock solution which has a concentration in the range of 200-1000 μM. The inhibitor stock solution is diluted (1:4, 1:16 and 1:64) into assay vials (vials 1, 2 and 3 respectively) containing 2.4 mL of buffer solution (50 mM N-[2-hydroxyethyl] piperazine-N'-[2-ethanesulfonic acid]/NaOH, 500 mM NaCl, pH 7.8 at 25° C.) and DMSO is added so that the total volume in each vial is 3.2 mL. 70 μL, 50 μL, 35 μL and 25 μL of inhibitor from assay vial 1 is placed into the first four wells of a 96-well microtiter plate and each well is made up to 90 μL total volume with the addition of a 25% DMSO/buffer solution. The inhibitor from assay vials 2 and 3 is processed in a similar manner and placed in wells 5-12 respectively to afford a total of 12 different inhibitor concentrations. Four wells (wells 13-16) containing 90 μL of the 25% DMSO/buffer solution but no inhibitor are also run simultaneously with the inhibited wells as a control. 150 μL of substrate solution (prepared by the addition of 500 μL of the human leukocyte elastase (HLE) substrate MeOSuc-Ala-Ala-Pro-Val-pNA (18.7 mM in DMSO) to 19.5 mL of buffer solution) is then added simultaneously into each of the 16 wells and the solution in each well was thoroughly mixed.
The 96-well microtiter plate is placed into a Microplate Reader #89815A spectrophotometer and 110 μL of the enzyme solution (prepared as follows: a mixture of 20 mL of buffer solution and 20 mg of bovine serum albumen is gently vortexed in a scintillation vial and 5 μL HLE stock solution (1 mg/mL dissolved in deionized water) is added) is added simultaneously to each of the 16 wells. Each of the solutions in the wells is throughly mixed and then the time-dependent absorbance data is collected at an absorbance of 410 nm until the assay is complete. It should be noted that although this assay method can be done manually, it is preferred to perform the assay robotically using a Hewlett Packard MicroAssay System Robot. the absorbance versus time data thus obtained affords curves the final slope of which is equal to the final steady-statevelocities (VF). Using the program ENZFITTER (Elsevier software), the progress curves for the four control assays ([I]=0 are fit by linear regression to yield the enzyme reaction velocity values in the absences of inhibitor (Vo) which are averaged to produce a single fixed value. The inhibition constant Ki (nM) is then obtained from a plot of [formula] which affords a linear plot wherein: [formula] and [S] is the concentration of the substrate and Km is the Michaelis constant.
Table I summarizes the results obtained from the testing of compounds of the invention for human leukocyte elastase inhibitory activity.

SMILES	Ki [nM]
CC(C)c1cc(OCCCC(=O)O)cc2c1C(=O)N(COc1cc(C(F)(F)F)nn1-c1ccccc1)S2(=O)=O [17 (b), 4-isopropyl-6-[3-(carboxy)propoxy]-2-(1-phenyl-3-trifluoromethylpyrazol-5-yl-oxymethyl)-1,2-benzisothiazol-3(2H)-one 1,1-dioxide]	0.036
COc1cc(C(C)C)c2c(c1)S(=O)(=O)N(COc1cc(-c3ccccc3)nn1C)C2=O [2 (b), 4-isopropyl-6-methoxy-2-(1-methyl-3-phenylpyrazol-5-yl-oxymethyl)-1,2-benzisothiazol-3(2H)-one 1,1-dioxide]	0.47
COc1cc(C(C)C)c2c(c1)S(=O)(=O)N(COc1cc(-c3ccncc3)nn1-c1ccc(Cl)cc1)C2=O [14 (c), 4-isopropyl-6-methoxy-2-[1-(4-chlorophenyl)-3-(4-pyridyl)pyrazol-5-yl-oxymethyl]-1,2-benzisothiazol-3(2H)-one 1,1-dioxide]	0.19
COc1cc(C(C)C)c2c(c1)S(=O)(=O)N(COc1cc(Br)nn1-c1ccccc1)C2=O [52 (b), 4-isopropyl-6-methoxy-2-[1-phenyl-3-bromopyrazol-5-yl-oxymethyl]-1,2-benzisothiazol-3(2H)-one 1,1-dioxide]	0.066
COc1cc(C(C)C)c2c(c1)S(=O)(=O)N(COc1cc(C(F)(F)F)nn1-c1ccc(Cl)nn1)C2=O [32 (c), 4-isopropyl-6-methoxy-2-[1-(3-chloropyridazin-6-yl)-3-trifluoromethylpyrazol-5-yl-oxymethyl]-1,2-benzisothiazol-3(2H)-one 1,1-dioxide]	0.055
COc1cc(C(C)C)c2c(c1)S(=O)(=O)N(COc1cc(C(F)(F)F)nn1-c1ncc(Cl)cc1C(F)(F)F)C2=O [34 (b), 4-isopropyyl-6-methoxy-2-[1-(5-chloro-3-trifluoromethyl-2-pyridyl)-3-trifluoromethylpyrazol-5-yl-oxymethyl]-1,2-benzisothiazol-3(2H)-one 1,1-dioxide]	0.027
COc1cc(C(C)C)c2c(c1)S(=O)(=O)N(COc1cc(C(F)(F)F)nn1C)C2=O [Example 25, 4-isopropyl-6-methoxy-2-(1-methyl-3-trifluoromethylpyrazol-5-yl-oxymethyl)-1,2-benzisothiazol-3(2H)-one 1,1-dioxide]	0.1
CCN(CC)Cc1ccc(COc2cc(C(C)C)c3c(c2)S(=O)(=O)N(COc2cc(C(F)(F)F)nn2-c2ccccc2)C3=O)o1 [29 (b)]	0.082
COc1cc(C(C)C)c2c(c1)S(=O)(=O)N(COc1cc(Cl)nn1-c1ccccc1)C2=O [24 (c), 4-isopropyl-6-methoxy-2-(1-phenyl-3-chloropyrazol-5-yl-oxymethyl)-1,2-benzisothiazol-3(2H)-one 1,1-dioxide]	0.026
COc1cc(C(C)C)c2c(c1)S(=O)(=O)N(COc1cc(C(F)(F)F)nn1-c1ccccn1)C2=O [10 (b), 4-isopropyl-6-methoxy-2-[1-(2-pyridyl)-3-trifluoromethylpyrazol-5-yl-oxymethyl]-1,2-benzisothiazol-3(2H)-one 1,1-dioxide]	0.024
COc1cc(C(C)C)c2c(c1)S(=O)(=O)N(COc1cc(C(F)(F)F)nn1-c1cccnc1)C2=O [20 (c), 4-isopropyl-6-methoxy-2-[1-(3-lpyridyl)-3-(trifluoromethyl)pyrazol-5-yl-oxymethyl]-1,2-benzisothiazol-3(2H)-one 1,1-dioxide]	0.037
CC(C)c1cc(O)cc2c1C(=O)N(COc1cc(C(F)(F)F)nn1-c1ccccc1)S2(=O)=O [Example 9, 4-iso-ropyl-6-hydroxy-2-(1-phenyl-3-trifluoromethylpyrazol-5-yl-oxymethyl)-1,2-benzisothiazol-3(2H)-one 1,1-dioxide]	0.78
COc1ccc(-n2nc(C(F)(F)F)cc2OCN2C(=O)c3c(C(C)C)cc(OC)cc3S2(=O)=O)cc1 [15 (b), 4-isopropyl-6-methoxy-2-[1-(4-methoxyphenyl)-3-trifluoromethylpyrazol-5-yl-oxymethyl)-1,2-benzisothiazol-3(2H)-one 1,1-dioxide]	0.13
CC(C)c1cc(O)cc2c1C(=O)N(COc1cc(C(F)(F)F)nn1-c1ccc(Cl)cc1)S2(=O)=O [39 (a), 4-isopropyl-6-hydroxy-2-[1-(4-chlorophenyl)-3-trifluoromethylpyrazol-5-yl-oxymethyl]-1,2-benzisothiazol-3(2H)-one 1,1-dioxide]	1.9
COc1cc(C(C)C)c2c(c1)S(=O)(=O)N(COc1cc(C(F)(F)F)nn1-c1ccc3ccccc3n1)C2=O [27 (b), 4-isopropyl-6-methoxy-2-[1-(2-quinolinyl)-3-(trifluoromethyl)pyrazol-5-yl-oxymethyl]-1,2-benzisothiazol-3(2H)-one 1,1-dioxide]	0.15
COc1cc(C(C)C)c2c(c1)S(=O)(=O)N(COc1c(Cl)c(C(F)(F)F)nn1-c1ccccc1)C2=O [16 (b), 4-isopropyl-6-methoxy-2-(1-phenyl-3-trifluoromethyl-4-chloropyrazol-5-yl-oxymethyl)-1,2-benzisothiazol-3(2H)-one 1,1-dioxide]	1.6
COc1cc(C(C)C)c2c(c1)S(=O)(=O)N(COc1cc(C(=O)NCCN3CCCC3)nn1-c1ccccc1)C2=O [23 (b), 4-isopropyl-6-methoxy-2-[1-phenyl-3-(C(O)NH(CH2)2-1-pyrrolidinyl)pyrazol-5-yl-oxymethyl]-1,2-benzisothiazol-3(2H)-one 1,1-dioxide]	0.065
CC(C)c1cc(OCc2ccc(CN(C)C)o2)cc2c1C(=O)N(COc1cc(C(F)(F)F)nn1-c1ccccc1)S2(=O)=O [Example 13]	0.12
COc1cc(C(C)C)c2c(c1)S(=O)(=O)N(COc1cc(C(F)(F)F)nn1-c1ccc(Cl)cn1)C2=O [28 (c), 4-isopropyl-6-methoxy-2-[1-(5-chloro-2-pyridyl)-3-(trifluoromethyl)pyrazol-5-yl-oxymethyl]-1,2-benzisothiazol-3(2H)-one 1,1-dioxide]	0.089
COc1cc(C(C)C)c2c(c1)S(=O)(=O)N(COc1ccnn1-c1ccccc1)C2=O [6 (c), 4-isopropyl-6-methoxy-2-(1-phenylpyrazol-5-yl-oxymethyl)-1,2-benzisothiazol-3(2H)-one 1,1-dioxide]	0.145
